In patent publication US6569877B2, “Therapeutic and prophylactic agents for neoplasms” (Sankyo Company, Limited, priority 1999, dated 2003):

Key:
[1] = test system: Human H69 lung cancer cells; assay: Antitumor effect on human H69 lung cancer cells (subcutaneous xenograft in nude mice); assay type: in vivo; details: H69 in BALB/c nude mice; 10 mg/kg orally once a day, 24 times; tumor volume on the 39th day after inoculation
Source text: (§1) A piece (5 mm×5 mm) of human lung affected by H69 strain of lung cancer was subcutaneously inoculated in a group of 10 BALB/c nude mice (female, 6 weeks old). The test compounds were suspended in 5% emulsified saline containing 2.5% dimethylacetamide. They were orally administered once a day for 24 times in total, i.e., from the first day after the inoculation to the 4th day, from the 7th to the 11th day, from the 14th to the 18th day and from the 21st to the 25th day and from the 28th to the 32nd day after inoculation.
The short diameter (mm) and the long diameter (mm) of the tumor were measured with an electronic digital caliper square on the 39th day after inoculation. The efficacy of the test compound was evaluated by calculation of the inhibitory growth rate of the tumor (GI %) according to the following equation: […]
A: average tumor volume on the 39th day after inoculation in the group treated with the test compound (*)
B: an average tumor volume on the 39th day after inoculation in the non-treated group (*)
*: The tumor volume indicates ½×(long diameter of the tumor)×(short diameter of the tumor)^2.

[2] = test system: Human MKN-74 stomach cancer cells; assay: Antitumor effects on human MKN-74 stomach cancer cells (subcutaneous xenograft in nude mice); assay type: in vivo
Source text: as §1, with “human stomach” for “human lung”, “by MKN-74” for “by H69”, “of stomach” for “of lung”, “after” for “after the”, “18th day,” for “18th day and”, “after the” for “after”
The short diameter (mm) and the long diameter (mm) of the tumor were measured with an electronic digital caliper square on the 35th day after inoculation. The efficacy of the test compound was evaluated by calculation of the inhibitory growth rate of the tumor (GI %) in a similar to those described above in Test Example 2.

[3] = test system: Human large intestine cancer cells COL-2-JCK; assay: Antitumor effects upon human large intestine cancer cells COL-2-JCK (colony formation, crystal violet staining); assay type: cell-based; details: 300 cells/well, 10 days incubation, control (0) 3311
Description: Human cancer cells from the large intestine, COL-2-JCK (moderately differentiated adenocarcinoma), purchased from the Central Institute for Experimental Animals, were employed in the Test Example of the present invention as the solid tumor strain. The proliferated CLO-2-JCK cells were cultured and used for the experiments in our laboratory. In order to subculture the strain of the cancer cells and to test compounds in the experiments, the cancer cells were cultured with D-MEM/F-12 culture medium containing bovine fetal serum (manufactured by GIBCO Co.).
The test was carried out as follows: COL-2-JCK cells growed confluently on a petri dish for culture of cells (inner diameter 100 mm) were removed from the petri dish by using EDTA and 0.05% trypsin solution, and diluted to 100 cells/ml cell density with the culture medium. 3 ml of the diluted cell solution was then placed into each well of a 6-well plate (300 cells/well). At the same time, the test compound dissolved in DMSO solution was added so as to be 1, 10, 100 nM, 1 and 10 μM of the final concentrations to each well. The final concentration of the DMSO solution was adjusted to 0.1%. DMSO solution (0.1%) alone was placed in wells of the control group. After addition of the test compound, the cells were incubated in the presence of 5% CO2 gas for 10 days at 37° C. After incubation was terminated, each well containing the cells was washed once with Dulbecco phosphate buffer saline (bivalent ion minus). Then 1 ml of 10% neutral formalin solution containing 0.02% crystal violet was added to the well and left for 5 minutes in order to stain the cells. After the dye was fixed, the cells were washed with water and air-dried. The total colony area (mm^2) of dye-fixed tumor cells was calculated by using an image analyzer of PCA-11 (manufactured by SystemSience Co.).

COc1ccc2nc(COc3ccc(CC4SC(=O)NC4=O)cc3)n(C)c2c1.Cl (centres unmarked) [Example 1, 5-[4-(6-Methoxy-1-methyl-1H-benzimidazol-2-ylmethoxy)benzyl]thiazolidine-2,4-dione hydrochloride]
GI (%) inhibitory growth rate of the tumor [1]: 57% | GI (%) inhibitory growth rate of the tumor ([2]; MKN-74 in BALB/c nude mice, 10 mg/kg orally once a day, 24 times, tumor volume on the 35th day after inoculation): 76% | suppression of proliferation of human stomach cancer cells (in words) ([2]; as shown by Test Example 3): suppressed the proliferation of human stomach cancer cells to a remarkable extent | Total colony area (mm^2) of tumor cells ([3]; final concentration of the test compound 1 nM): 2795 mm^2 | Total colony area (mm^2) of tumor cells ([3]; final concentration of the test compound 10 nM): 2018 mm^2 | Total colony area (mm^2) of tumor cells ([3]; final concentration of the test compound 100 nM): 1352 mm^2 | Total colony area (mm^2) of tumor cells ([3]; final concentration of the test compound 1 μM): 933 mm^2 | Total colony area (mm^2) of tumor cells ([3]; final concentration of the test compound 10 μM): 768 mm^2
